Assays:
Type in all cases: in vivo, male Wistar rats
[1] = target: T1, β1-adrenoceptors (Rattus norvegicus, UniProt P18090); assay: β1-adrenoceptor blocking action (inhibition of increase in heart rate exerted by isoproterenol) and selectivity for β1-adrenoceptors; conditions: blocking activity ratio from ID50 doses; Table 2
T1 construct: Experiments were done using male Wistar rats; from tissue; host or cells: whole anesthetized male Wistar rat (in vivo; heart rate)
Procedure: (§1) Experiments were done using male Wistar rats weighing between 300 and 400 g, anesthetized with sodium pentobarbital (60 mg/kg i.p.). The blood pressure was directly measured by connecting a cannula inserted in the femoral artery to a pressure transducer and the heart rate was calculated from the pulse waves of the blood pressure tracings. Each value shown here was obtained from three animals. The test compounds were individually dissolved in physiological saline solution or a 0.01N aqueous solution of hydrochloric acid.
(§2) (1) Measurement of β-adrenoceptor blocking activity
The increased heart rate before injection of the test compound was represented by H1. Three minutes after i.v. injection of the test compound, isoproterenol (0.1 μg/kg i.v.) was again administered and then the change in heart rate was measured. The maximum increase in heart rate after injection of the test compound was designated as H2. From these values, the percent inhibition of the change in heart rate was calculated in accordance with the following equation.
(§3) By repeating the procedure mentioned above at various doses of the test compounds, dose-response curves were prepared.

[2] = target: T2, β2 (Rattus norvegicus, UniProt P10608); assay: β2-adrenoceptor blocking action (inhibition of fall in blood pressure exerted by isoproterenol); conditions: iv, 50% inhibition of fall in blood pressure by isoproterenol 0.1 μg/kg i.v., Table 2, read-out: β-adrenoceptor blocking action ID50 β2
T2 construct: Experiments were done using male Wistar rats; from tissue; host or cells: whole anesthetized male Wistar rat (in vivo; arterial blood pressure)
T2 sequence (P10608 whole entry): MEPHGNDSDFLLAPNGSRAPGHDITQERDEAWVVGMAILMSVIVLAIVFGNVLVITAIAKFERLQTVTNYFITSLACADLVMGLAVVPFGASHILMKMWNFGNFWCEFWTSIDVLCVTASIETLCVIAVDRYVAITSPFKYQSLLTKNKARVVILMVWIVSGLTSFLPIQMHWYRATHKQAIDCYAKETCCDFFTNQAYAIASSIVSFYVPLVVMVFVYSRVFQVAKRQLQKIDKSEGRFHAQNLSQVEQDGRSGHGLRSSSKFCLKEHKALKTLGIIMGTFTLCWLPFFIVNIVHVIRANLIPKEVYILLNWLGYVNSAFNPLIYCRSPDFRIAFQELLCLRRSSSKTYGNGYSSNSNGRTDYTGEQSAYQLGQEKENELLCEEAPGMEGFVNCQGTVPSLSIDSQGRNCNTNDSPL
Procedure: as §1, §2, §3

[3] = test system: heart rate; assay: Heart rate increase produced by isoproterenol; conditions: single i.v. injection 0.1 μg/kg, before test compound
Procedure: Experiments were done using male Wistar rats weighing between 300 and 400 g, anesthetized with sodium pentobarbital (60 mg/kg i.p.). The blood pressure was directly measured by connecting a cannula inserted in the femoral artery to a pressure transducer and the heart rate was calculated from the pulse waves of the blood pressure tracings. Each value shown here was obtained from three animals. The test compounds were individually dissolved in physiological saline solution or a 0.01N aqueous solution of hydrochloric acid. A single intravenous (i.v.) injection of isoproternol (0.1 μg/kg) produced an increase in heart rate by approximately 90 beats/min. The increased heart rate before injection of the test compound was represented by H1. Three minutes after i.v. injection of the test compound, isoproterenol (0.1 μg/kg i.v.) was again administered and then the change in heart rate was measured. The maximum increase in heart rate after injection of the test compound was designated as H2. From these values, the percent inhibition of the change in heart rate was calculated in accordance with the following equation.

T1 sequence (P18090 whole entry): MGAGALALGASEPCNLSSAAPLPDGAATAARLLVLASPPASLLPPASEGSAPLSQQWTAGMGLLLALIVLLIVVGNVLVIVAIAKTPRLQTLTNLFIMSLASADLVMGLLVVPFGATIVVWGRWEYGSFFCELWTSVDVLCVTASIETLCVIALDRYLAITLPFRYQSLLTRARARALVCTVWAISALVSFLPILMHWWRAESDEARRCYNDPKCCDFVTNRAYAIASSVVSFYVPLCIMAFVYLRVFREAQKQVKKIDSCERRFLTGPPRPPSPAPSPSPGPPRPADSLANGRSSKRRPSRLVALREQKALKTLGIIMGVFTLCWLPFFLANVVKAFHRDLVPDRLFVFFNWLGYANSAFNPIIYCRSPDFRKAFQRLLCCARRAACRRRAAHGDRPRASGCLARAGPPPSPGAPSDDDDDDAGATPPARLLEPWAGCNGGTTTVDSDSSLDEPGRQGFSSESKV

Row | Compound | Selectivity for β1-adrenoceptors (β1/β2) [1] | ED50 [2] [mg/kg] | increase in heart rate [3]
1 | CC(C)NCC(O)COc1ccc(CC(N)=O)cc1 (stereo not drawn) [Atenolol, reference compound] | 30 | 1.5 | –
2 | CC(C)(COc1ccc(NN)nn1)NCC(O)COc1ccccc1Cl (stereo not drawn) [B, 1-(2-chlorophenoxy)-3-[1,1-dimethyl-2-(3-hydrazino-6-pyridazinyloxy)ethylamino]-2-propanol] | 29 | 0.23 | –
3 | Cc1ccccc1OCC(O)CNC(C)(C)COc1ccc(NN)nn1 (stereo not drawn) [C, 1-(2-methylphenoxy)-3-[1,1-dimethyl-2-(3-hydrazino-6-pyridazinyloxy)ethylamino]-2-propanol] | 30 | 0.45 | –
4 | CC(C)(COc1ccc(NN)nn1)NCC(O)COc1ccccc1C#N (stereo not drawn) [Compound I, 1-(2-cyanophenoxy)-3-[1,1-dimethyl-2-(3-hydrazino-6-pyridazinyloxy)ethylamino]-2-propanol] | 5 | 0.1 | –
5 | Cc1ccc(C#N)c(OCC(O)CNC(C)(C)COc2ccc(NN)nn2)c1 (stereo not drawn) [K, 1-(2-cyano-5-methylphenoxy)-3-[1,1-dimethyl-2-(3-hydrazino-6-pyridazinyloxy)ethylamino]-2-propanol] | 2 | 0.1 | –
6 | C#Cc1ccccc1OCC(O)CNC(C)(C)COc1ccc(NN)nn1 (stereo not drawn) [R, 1-(2-ethinylphenoxy)-3-[1,1-dimethyl-2-(3-hydrazino-6-pyridazinyloxy)ethylamino]-2-propanol] | > 5 | – | –
7 | CC(C)NCC(O)c1ccc(O)c(O)c1 (stereo not drawn) [isoproternol, isoproterenol] | – | – | approximately 90 beats/min
